{"source": "patent US20150265642A1", "about": "“NAD BIOSYNTHESIS AND PRECURSORS IN THE PREVENTION AND TREATMENT OF INFLAMMATION” (PRESIDENT AND FELLOWS OF HARVARD COLLEGE, priority 2013, published 2015)", "key": {"[1]": {"tested_on": "TFAM promoter", "assay": "TFAM promoter activity (luciferase assay) in primary WT myoblasts", "type": "cell-based, mouse", "description": "TFAM promoter, VHL promoter, HRE and c-Myc activity were determined using a luciferase-based system. Luciferase activity was measured using the Dual-Luciferase Reporter Assay System (Promega) with Renilla as the reference.\nTFAM promoter activity was evaluated using a TFAM promotes-luc plasmid. A fragment of the mouse Tfam promoter (1.4 kb upstream of the coding sequence) was cloned into a pGL4.15 vector (Promega). Luciferase activity was measured using the Dual-Luciferase Reporter Assay System (Promega) with Renilla as the reference 48 h after transfection."}, "[2]": {"tested_on": "C2C12 myoblasts", "assay": "mtDNA content and ETC gene expression in C2C12 myoblasts", "type": "cell-based", "description": "C2C12 cell line (ATCC) was cultured in low glucose Dulbecco's modified eagle medium (DMEM) (Invitrogen) supplemented with 10% FBS (Invitrogen) and a mix of antibiotic and antimycotic (Invitrogen). To inhibit SIRT1, cells were treated the vehicle (0.001% DMSO) or 10 μM EX-527 (Tocris) for 12 h. C2C12 myoblasts were infected with an empty or SIRT1 adenovirus as described before (Gerhart-Hines et al., 2007) and the media was replaced with fresh DMEM for additional 48 h, after that the cells were treated as described before. To test the effects of hypoxia and HIFα stabilization in genome asyncrony, C2C12 myoblasts were exposed to 1% oxygen for 16 h or treated with the vehicle (0.001% DMSO) or DMOG (Cayman) for the same period of time.\n(§1) RNA from skeletal muscle tissue and C2C12 cells were extracted with RNeasy mini kit (Qiagen) according to the instructions and quantified using the NanoDrop 1000 spectrophotometer (Thermo Scientific). cDNA was synthesized with the iSCRIP cDNA synthesis kit (BioRad) using 600 ng of RNA. Quantitative RT-PCR reactions were performed using 1 μM of primers and LightCycler® 480 SYBR Green Master (Roche) on an LightCycler® 480 detection system (Roche). Calculations were performed by a comparative method (2-ΔCT) using 18S as an internal control. For mtDNA analysis, total DNA was extracted with DNeasy blood and tissue kit (Qiagen). mtDNA was amplified using primers specific for the mitochondrial cytochrome c oxidase subunit 2 (COX2) gene and normalized to genomic DNA by amplification of the ribosomal protein s18 (rps18) nuclear gene. Primers were designed using the IDT software (IDT) and the primer sequences can be found in Table 1."}, "[3]": {"tested_on": "HIF-1α", "assay": "DMOG treatment of SIRT1-tg mice (HIF-1α immunoblot, qPCR, ATP content in gastrocnemius)", "type": "in vivo", "conditions": "DMOG IP 300 mg/kg/day, 5 days", "description": "Whole body SIRT1 overexpressor (SIRT1-tg) mice of 6 months of age were given interperitoneal (IP) injections of 300 mg DMOG/kg body weight per day or the equivalent volume of PBS for 5 consecutive days.\nATP content was measured with a commercial kit according to the manufacturer's instructions (Roche).\nas §1\n(§2) Protein extracts from tissue or C2C12 cells were obtained by lysis in ice-cold lysis buffer (150 mM NaCl, 10 mM Tris HCl (pH 7.4), 1 mM EDTA, 1 mM EGTA, 1% Triton X-100, 0.5% NP-40) supplemented with a cocktail of protease and phosphatase inhibitors (Roche). Protein content was determined by the Bradford protein assay (Biorad), and 50 μg proteins were run on SDS-PAGE under reducing conditions. The separated proteins were then electrophoretically transferred to a polyvinylidene difluoride membrane (Perkin-Elmer). […] The immunostaining was detected using horseradish peroxidase-conjugated anti-rabbit or anti-mouse immunoglobulin for 1 h at room temperature."}, "[4]": {"tested_on": "inflammation related markers (TNFa, IL-6, IL-18)", "assay": "qPCR of inflammation related markers in gastrocnemius", "type": "in vivo, C57BL/6J mice", "conditions": "6-month-old mice, DMOG IP 300 mg/kg/day, 5 days", "description": "C57BL/6J mice of 3, 6, 22, or 24 months of age were obtained from the National Institutes of Aging mouse aging colony. Mice were acclimated for at least one-week prior to sacrifice. 3, 6, 22 and 24-month-old mice were given interperitoneal (IP) injections of 500 mg NMN/kg body weight per day or the equivalent volume of PBS for 7 consecutive days at 5:00 pm and 7:00 am on day 8 and sacrificed 4 hr after last injection. All animal studies followed the guidelines of and were approved by the Harvard Institutional Animal Care and Use Committee\nC57BL/6J mice of 6 months of age were given interperitoneal (IP) injections of 300 mg DMOG/kg body weight per day or the equivalent volume of PBS for 5 consecutive days. All animal studies followed the guidelines of and were approved by the Harvard Institutional Animal Care and Use Committee\nRNA from skeletal muscle and aorta were extracted with RNeasy mini kit (Qiagen) according to the instructions and quantified using the NanoDrop 1000 spectrophotometer (Thermo Scientific). cDNA was synthesized with the iSCRIP cDNA synthesis kit (BioRad) using 600 ng of RNA. Quantitative RT-PCR reactions were performed using 1 μM of primers and LightCycler® 480 SYBR Green Master (Roche) on an LightCycler® 480 detection system (Roche). Calculations were performed by a comparative method (2-ΔCT) using 18S as an internal control. […]"}, "[5]": {"tested_on": "PGC-1α/β KO myotubes", "assay": "Gene expression (qPCR) and HIF-1α immunoblot in PGC-1α/β KO myotubes", "type": "cell-based, mice", "conditions": "for effect on induction of mitochondrial ETC genes by SIRT1 overexpression: PGC-1α/β knockout myocytes/myotubes; for effect on induction of mitochondrial ETC genes by SIRT1 overexpression / effect on NMN-induced expression of mitochondrially-encoded ETC genes: 1 mM DMOG or 10 μM DFO, 12 hours; for effect on NMN-induced expression of mitochondrially-encoded ETC genes: primary PGC-1α/β KO myotubes; for nuclear- and mitochondrial-encoded genes: EX-527 48 h", "description": "Primary myoblasts cells were isolated from WT, SIRT1 KO (Price et al., 2012) and PGC-1α/β KO (Zechner et al., 2010) mice as previously described (Price et al., 2012). WT and PGC-1α/β KO primary myoblasts were plated and allowed to differentiate into myotubes by replacing the media with low glucose DMEM supplemented with 2% horse serum (Sigma-Aldrich) for 4 days. After the differentiation the cells were infected with empty vector or flag-SIRT1 adenovirus as described before (Gerhart-Hines et al., 2007). Media was replaced with fresh DMEM supplemented with 2% horse serum (Sigma-Aldrich) for an additional 48 hr and, after that the cells were harvested for the different assays as described. To investigate the role of HIF-1α in genome asynchrony, PGC-1α/β KO primary myotubes were treated for 12 hours with 1 mM DMOG (Sigma) or 10 μM DFO (Sigma), 24 h after infection with empty vector of flag-SIRT1 adenovirus or after 12 h treatment with […] NMN (Sigma).\nas §1, §2"}, "[6]": {"tested_on": "primary myoblasts", "assay": "NAD+/NADH ratio and HIF-1α immunoblot in primary WT myoblasts treated with pyruvate or lactate", "type": "cell-based, mice", "conditions": "10 mM lactate, 24 h", "from_the_text": "FIG. 21 provides additional data related to the content of FIG. 14. FIG. 21A depicts HIF-1α target genes (PGK-1, Glut1, PDK1 and Vegfa) expression in gastrocnemius of WT and SIRT1 KO mice. Relative expression values were normalized to WT mice (n=5). FIG. 21B depicts hypoxia response element activity in primary myoblasts isolated from WT and SIRT1 KO mice and treated with or without DMOG. Relative luciferase activity was normalized to WT cells (n=6, *p<0.05 versus WT). FIG. 21C depicts a representative immunoblot of HIF-1α and Tubulin in PGC-1α/β KO myotubes treated with adenovirus overexpressing SIRT1 or empty vector as well as treatment with DMSO or with HIF stabilizing compound DMOG. FIG. 21D depicts NAD+/NADH ration measured in primary WT myoblasts treated with either 10 mM pyruvate, 10 mM lactate or vehicle for 24 h (n=4). […] FIG. 21J depicts mitochondrial DNA content analyzed by qPCR in control, HIF-1α DPA or HIF-2α DPA C2C12 cells treated with adenovirus overexpressing SIRT1 or empty vector. […] FIG. 21K depicts ARNT mRNA analyzed by qPCR in C2C12 cells infected with ARNT or nontargeting shRNA. […] FIG. 21L depicts mitochondrial DNA content analyzed by qPCR in C2C12 cells infected with ARNT or nontargeting shRNA. […] FIG. 21M depicts ND1, Cytb, COX1 and ATP6 mRNA analyzed by qPCR in C2C12 cells infected with ARNT or nontargeting shRNA. […] Values are expressed as mean±SEM. […]"}, "[7]": {"conditions": "C2C12 myoblasts treated with DMOG, 16 h"}}, "data": [{"compound": "COC(=O)CNC(=O)C(=O)OC", "note": "[DMOG, dimethyloxaloylglycine]", "values": [{"measurement": "full length TFAM promoter activity", "setting": "[1]; DMOG vs vehicle (DMSO)", "result": "reduces the full length TFAM promoter activity"}, {"measurement": "TFAM promoter activity with c-Myc consensus sequence mutation", "setting": "[1]; DMOG, absence of the c-Myc binding site", "result": "does not have an additive effect"}, {"measurement": "expression of mitochondrially-encoded ETC genes", "setting": "[2]; [7]", "result": "specific decline"}, {"measurement": "mtDNA content", "setting": "[2]; [7]", "result": "specific decline"}, {"measurement": "HIF-1α protein", "setting": "[3]", "result": "increase HIF-1α"}, {"measurement": "increase in ATP levels observed in SIRT1-tg mice", "setting": "[3]", "result": "abolished"}, {"measurement": "increase in the expression of mitochondrial-encoded genes observed in SIRT1-tg mice", "setting": "[3]", "result": "abolished the increase"}, {"measurement": "inflammation related markers (TNFalpha, IL-6, Il-1b and IL-18) in the skeletal muscle", "setting": "[4]", "result": "induces inflammatory markers in the skeletal muscle"}, {"measurement": "effect on NAD (pyruvate) mediated increases in mitochondrial-encoded genes", "setting": "[5]; PGC-1α/β KO cells, pyruvate in the presence of DMOG", "result": "can be inhibited"}, {"measurement": "HIF-1α protein", "setting": "[5]; PGC-1α/β KO myotubes, DMOG (FIG. 21C)", "result": "stabilizes HIF-1α protein"}, {"measurement": "effect on induction of mitochondrial ETC genes by SIRT1 overexpression", "setting": "[5]", "result": "completely blocked"}, {"measurement": "expression of mitochondrial-encoded genes", "setting": "[5]; PGC-1α/β knockout myotubes, DMOG compared to vehicle control", "result": "induced a decline"}, {"measurement": "effect on NMN-induced expression of mitochondrially-encoded ETC genes", "setting": "[5]", "result": "completely abolished"}]}, {"compound": "CC(O)C(=O)O", "note": "(centres unmarked) [lactate]", "values": [{"measurement": "HIF-1α protein", "setting": "[6]", "result": "induces HIF-1α protein stabilization"}, {"measurement": "NAD+/NADH ratio", "setting": "[6]", "result": "decreasing"}]}, {"compound": "NC(=O)C1CCCc2c1[nH]c1ccc(Cl)cc21", "note": "(centres unmarked) [EX-527]", "values": [{"measurement": "genome asynchrony", "setting": "[2]; C2C12 cells, 10 μM EX-527, 12 h", "result": "induced"}, {"measurement": "nuclear- and mitochondrial-encoded genes", "setting": "[5]; PGC-1α/β KO myotubes reconstituted with PGC-1α T177A/S538A mutant", "result": "only the mitochondrial-encoded genes decreased"}, {"measurement": "nuclear- and mitochondrial-encoded genes", "setting": "[5]; PGC-1α/β KO myotubes reconstituted with WT PGC-1α", "result": "decreased both nuclear- and mitochondrial-encoded genes"}]}, {"compound": "CC(=O)N(O)CCCCCNC(=O)CCC(=O)N(O)CCCCCNC(=O)CCC(=O)N(O)CCCCCN", "note": "[DFO, desferrioxamine]", "values": [{"measurement": "effect on induction of mitochondrial ETC genes by SIRT1 overexpression", "setting": "[5]", "result": "completely blocked"}, {"measurement": "effect on NMN-induced expression of mitochondrially-encoded ETC genes", "setting": "[5]", "result": "completely abolished"}]}]}
